Experimental data from patent US20250145608A1, “KRAS DEGRADING COMPOUNDS COMPRISING ANNULATED 2-AMINO-3-CYANO THIOPHENES” (Boehringer Ingelheim Int'l GmbH Corp., priority 2021, published 2025).

Assays:
Type in all cases: cell-based
[1] = target: T1, KRAS(G12D) (Homo sapiens, UniProt P01116, G12D); experiment: HiBit degradation assay in GP5d-HiBit-KRAS(G12D) cells (18 h; DC50, Dmax)
T1 construct: introduced immediately downstream of the initiating Methionine codon of the endogenous KRAS locus; host or cells: GP5d-HiBit-KRAS(G12D), a CRISPR knock-in at the endogenous locus
Description: A HiBit protein detection tag (amino acid sequence […], Seq ID No 1) was introduced immediately downstream of the initiating Methionine codon of the endogenous KRAS locus (Ensembl gene ID ENSG00000133703.7) of GP5d cells (ECACC Cat. No. 95090715) by CRISPR-based genome engineering using a KRAS(G12D) mutant donor construct encoding the HiBit tag. […] Correct modification of the KRAS locus was assessed by PCR-based genotyping and Sanger sequencing of the isolated PCR products. The resulting cell line is referred to as GP5d-HiBit-KRAS(G12D).
To assess PROTAC-mediated degradation of KRAS(G12D), GP5d-HiBit-KRAS(G12D) cells were seeded at 25000 cells per well in 100 μL Dulbecco's Modified Eagle medium (Sigma cat. no. D6429) supplemented with 10% fetal calf serum into white bottom opaque 96 well plates (Perkin Elmer cat no. 5680). Plates were incubated at 37° C., 5% CO2 in a humidified incubator over night to allow the cells to adhere. […] Plates were further incubated at 37° C. for 18 hours. Following incubation, 100 μL per well Promega Nano-Glo HiBit lytic detection reagent mix (Promega Nano-Glo HiBit Lytic Detection System #N3050), prepared according to the manufacturer's instructions in the kit, were added. To allow for adequate cell lysis, plates were incubated on an orbital shaker for 15 min and further incubated 30 min at room temperature. Upon completion of cell lysis, luminescence was measured using an Envision plate reader using the Ultrasensitive Luminescence Protocol for 96 well plates. Luminescence levels were normalized by the values obtained with DMSO-treated samples and plotted as percent of DMSO control. DC50 values were computed using a four parametric logistic model. Dmax values represent the maximal extent of degradation observed and is stated as percent of control (% Ctrl.) treatments. DC50 and Dmax are reported in Table 64 for representative compounds of the invention.

[2] = tested on: NCI-H358 cells; experiment: NCI-H358 CTG proliferation assay (120 h) (NSCLC, G12C); conditions: Homo sapiens, assay 2, read-out: H358 (assay 2) IC50
Description: NCI-H358 CTG Proliferation Assay (120 h) (NSCLC, G12C)
NCI-H358 cells (ATCC No. CRL-5807) are dispensed into white bottom opaque 96 well plates (Perkin Elmer cat no. 5680) at a density of 2000 cells per well in 100 μL RPMI-1640 ATCC-Formulation (Gibco #A10491)+10% FCS (fetal calf serum) (assay 1) or into black 384-well plates, flat and clear bottom (Greiner, PNr. 781091) at a density of 200 cells per well in 60 μl RPMI-1640 ATCC-Formulation (Gibco #A10491)+10% FCS (fetal calf serum) (assay 2). […] Compounds (10 mM stock in DMSO) are added at logarithmic dose series using the HP Digital Dispenser D300 (Tecan) (assay 1) or the ECHO acoustic liquid handler system (Beckman Coulter) (assay 2), normalizing for added DMSO and including DMSO controls. For the TO time point measurement, untreated cells are analyzed at the time of compound addition. Plates are incubated for 120 h, and cell viability is measured using CellTiter-Glo luminescent cell viability reagent (Promega product code G7570). Viability (stated as percent of control) is defined as relative luminescence units RLU of each well divided by the RLU of cells in DMSO controls. IC50 values are determined from viability measurements by non-linear regression using a four parameter model.

[3] = tested on: AsPC-1 cells; experiment: AsPC-1 CTG proliferation assay (120 h) (pancreatic cancer, G12D); conditions: Homo sapiens, ASPC1, AsPC-1 proliferation
Description: AsPC-1 CTG Proliferation Assay (120 h) (Pancreatic Cancer, G12D)
The CTG assay is designed to measure quantitatively the proliferation of AsPC-1 cells (ATCC […]), using the CellTiter Glow Assay Kit (Promega G7571). Cells are grown in RPMI medium (ATCC) supplemented with Fetal Calf Serum (Life Technologies, Gibco BRL, Cat. No. 10270-106). On “day 0” 2000 AsPC-1 cells are seeded in 60 μL RPMI ATCC+10% FCS+ Penstrep in a 384-well plate, flat and clear bottom (Greiner, PNr. 781091). Cells are then incubated in the plates at 37° C. in a CO2 incubator overnight. On day 1, compounds (10 mM stock in DMSO) are added with the ECHO acoustic liquid handler system (Beckman Coulter), including DMSO controls. Plates are incubated for 120 h, and cell viability is measured using CellTiter-Glo luminescent cell viability reagent (Promega product code G7570). Viability (stated as percent of control) is defined as relative luminescence units RLU of each well divided by the RLU of cells in DMSO controls. IC50 values are determined from viability measurements by non-linear regression using a four-parameter model.

[4] = tested on: SAS cells; experiment: SAS CTG proliferation assay (120 h) (HNSCC, wt amplified)
Description: SAS CTG Proliferation Assay (120 h) (HNSCC, Wt Amplified)
(§1) SAS cells (JCRB0260) are dispensed into 384-well plates, flat and clear bottom (Greiner, PNr. 781091) at a density of 300 cells per well in 60 μL DMEM:F12 (Gibco 31330-038)+10% Fetal Calf Serum (HyClone, PNr.: SH30084.03) and incubated at 37° C. in a CO2 incubator overnight. The next day, compounds (10 mM stock in DMSO) are added with the ECHO acoustic liquid handler system (Beckman Coulter), including DMSO controls. Plates are incubated for 120 h, and cell viability is measured using CellTiter-Glo luminescent cell viability reagent (Promega product code G7570). Viability (stated as percent of control) is defined as relative luminescence units RLU of each well divided by the RLU of cells in DMSO controls. IC50 values are determined from viability measurements by non-linear regression using a four-parameter model.

[5] = tested on: SK—CO-1 cells; experiment: SK-CO-1 CTG proliferation assay (120 h) (CRC, G12V); conditions: Homo sapiens, SK-CO-1 proliferation
Description: SK—CO-1 CTG Proliferation Assay (120 h) (CRC, G12V)
as §1, with “SK—CO-1 cells (ATCC” for “SAS cells (JCRB0260)”, “SK—CO-1 cells (ATCC HTB-39) are dispensed” for “SAS cells (JCRB0260) are dispensed”, “density of 500 cells per” for “density of 300 cells per”, “60 μL EMEM (Sigma M5650)+10% Fetal Calf” for “60 μL DMEM:F12 (Gibco 31330-038)+10% Fetal Calf”

[6] = tested on: LOVO cells; experiment: LOVO CTG proliferation assay (120 h) (CRC, G13D); conditions: Homo sapiens
Description: LOVO CTG Proliferation Assay (120 h) (CRC, G13D)
as §1, with “LOVO cells (ATCC” for “SAS cells (JCRB0260)”, “LOVO cells (ATCC CCL-229) are dispensed” for “SAS cells (JCRB0260) are dispensed”, “density of 1000 cells per” for “density of 300 cells per”, “60 μL DMEM (Sigma D6429)+10% Fetal Calf” for “60 μL DMEM:F12 (Gibco 31330-038)+10% Fetal Calf”

T1 sequence (P01116 1-188 isoform P01116-2 G12D): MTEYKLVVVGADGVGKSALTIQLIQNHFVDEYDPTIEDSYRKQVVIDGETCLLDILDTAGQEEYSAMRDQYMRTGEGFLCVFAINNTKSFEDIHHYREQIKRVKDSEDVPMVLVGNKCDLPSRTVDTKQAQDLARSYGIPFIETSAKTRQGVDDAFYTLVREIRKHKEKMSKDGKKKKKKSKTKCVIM

DC50 [1] [nM]	Dmax 18 h [1] [% Ctrl]	IC50 [2] [nM]	IC50 [3] [nM]	IC50 [5] [nM]	IC50 [6] [nM]	Compound	IC50 [4] [nM]
12.9	92	288	470	216	59.4	CC(C)C(C(=O)N1C[C@H](O)C[C@H]1C(=O)NCc1ccc(-c2scnc2CO)cc1)c1cc(OCCCCN2CCCN(c3nccc(-c4noc([C@@]5(C)CCCc6sc(N)c(C#N)c65)n4)n3)[C@@H](C)C2)no1 (some centres unmarked) [I-9]	16400
7.6	83	–	8330	507	929	Cc1ncsc1-c1ccc([C@H](CO)NC(=O)[C@@H]2C[C@@H](O)CN2C(=O)C(C(C)C)n2cc(OCCCCN3C[C@H](C)N(c4nccc(-c5noc([C@@]6(C)CCCc7sc(N)c(C#N)c76)n5)n4)CCC3(C)C)nn2)cc1 (some centres unmarked) [I-32]	9440
13.1	91	–	323	1950	50	COC(=O)[C@H](NC(=O)[C@@H]1C[C@@H](O)CN1C(=O)C(C(C)C)n1cc(OCCCCN2CCCN(c3nccc(-c4noc([C@@]5(C)CCCc6sc(N)c(C#N)c65)n4)n3)[C@@H](C)C2)nn1)c1ccc(-c2scnc2C)cc1 (some centres unmarked) [I-33]	84.5
4.1	89	169	435	124	278	CC(C)C(C(=O)N1C[C@H](O)C[C@H]1C(=O)NCc1ccc(C#N)c(Cl)c1)c1cc(OCCCCN2CCCN(c3nccc(-c4noc([C@@]5(C)CCCc6sc(N)c(C#N)c65)n4)n3)[C@@H](C)C2)no1 (some centres unmarked) [I-18]	3380
